According to patent US6713645B1, “Substituted tricyclics” (Eli Lilly and Company, priority 1996, dated 2004):

Compound | melting point [°C]
COc1cc(OCC(=O)[O-])c2c3c(n(Cc4ccccc4)c2c1)CCCC3C(N)=O.[Na+] (stereo not drawn) | 251 to 254
COc1cc(OC)c2c3c(n(Cc4ccccc4)c2c1)CCCC3C(=O)NN (stereo not drawn) [Example 1, 9-benzyl-5,7-dimethoxy-1,2,3,4-tetrahydrocarbazole-4-carboxylic acid hydrazide] | 189 to 190
COc1cc(OC)c2c3c(n(Cc4ccccc4)c2c1)CCCC3C(N)=O (stereo not drawn) [Example 2, 9-benzyl-5,7-dimethoxy-1,2,3,4-tetrahydrocarbazole-4-carboxamide] | 190 to 192
COc1cc(OC(C)C(=O)O)c2c3c(C(N)=O)cccc3n(Cc3ccccc3)c2c1 (stereo not drawn) [Example 5, methyl [9-benzyl-4-carbamoyl-7-methoxycarbazol-5-yl]oxyacetic acid] | 170 to 172
Cc1ccc(OCC(=O)O)c2c3c(C(N)=O)cccc3n(Cc3ccccc3)c12 [Example 50, [9-benzyl-5-carbamoyl-1-methylcarbazol-4-yl]oxyacetic acid] | 253 to 254
NC(=O)c1cccc2c1c1c(OCC(=O)O)ccc(Cl)c1n2Cc1ccccc1 [Example 54, [9-benzyl-5-carbamoyl-1-chlorocarbazol-4-yl]oxyacetic acid] | 240 to 242
